These results are taken from ChEMBL document CHEMBL4334476 (J Med Chem, 2019).

The target of one assay is T1, Arginase-1 (Homo sapiens, UniProt P05089).
T1 sequence (P05089 whole entry): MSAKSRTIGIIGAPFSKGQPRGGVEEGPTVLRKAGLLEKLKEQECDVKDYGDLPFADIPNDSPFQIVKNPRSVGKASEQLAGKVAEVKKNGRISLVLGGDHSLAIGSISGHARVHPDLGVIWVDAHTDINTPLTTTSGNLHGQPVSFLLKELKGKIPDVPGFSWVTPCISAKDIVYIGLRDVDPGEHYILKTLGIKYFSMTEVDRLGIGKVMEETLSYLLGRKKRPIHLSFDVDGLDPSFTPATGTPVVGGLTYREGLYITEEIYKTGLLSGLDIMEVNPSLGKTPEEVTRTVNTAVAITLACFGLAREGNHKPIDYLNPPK
The assay can be described thus: Inhibition of human recombinant arginase 1 expressed in Escherichia coli BL21 (DE3) assessed as reduction in urea production using L-arginine as substrate in presence of MnSO4 incubated for 60 mins by o-phthaldialdehyde/N-(1-naphthyl)ethylene-diamine dihydrochloride reagent based colorimetric assay.

The nature of assay [1]: Inhibition of human recombinant arginase 2 H331 to I354 deletion mutant expressed in Escherichia coli BL21 (DE3) assessed as reduction in urea production using L-arginine as substrate in presence of MnSO4 incubated for 60 mins by colorimetric assay.
The species entered for the next assay is Homo sapiens. The assay can be described thus: Selectivity ratio of IC50 for human recombinant arginase 2 H331 to I354 deletion mutant expressed in Escherichia coli BL21 (DE3) to IC50 for human recombinant arginase 1 expressed in Escherichia coli BL21 (DE3).
Assay [2] addresses T2, Arginase-1 (Homo sapiens) (UniProt P05089).
T2 sequence (whole entry): T1 sequence (P05089 whole entry)
The assay can be described thus: Potency index, ratio of ABH IC50 to test compound IC50 for human recombinant arginase 1 expressed in Escherichia coli BL21 (DE3).

For the molecule `N[C@H](CN1C[C@H](CCCB(O)O)[C@](N)(C(=O)O)C1)c1ccccc1`, the results for the IC50 (on Arginase-1 (read-out: IC50); in assay [1] (read-out: IC50)) were 2.5 nM and 9.5 nM, respectively. Moreover, the Ratio IC50 in the assay listed under Homo sapiens was 3 to 5.
For the molecule `CC(C)CN1C[C@H](CCCB(O)O)[C@](N)(C(=O)O)C1`, the results for the concentration for half-maximal inhibition (IC50) (at Arginase-1 (read-out: IC50); in assay [1] (read-out: IC50)) were 390 nM and 1610 nM, respectively. Further, the Ratio IC50 in the assay listed under Homo sapiens lay within 3 to 5.
Taken in the same sequence, the figures for `N[C@@H](CN1C[C@H](CCCB(O)O)[C@](N)(C(=O)O)C1)c1ccccc1` were 18 nM, 62 nM and 3 to 5.
For the molecule `N[C@@]1(C(=O)O)CN(C[C@@H]2CCCN2)C[C@@H]1CCCB(O)O`, the results for the IC50 (on Arginase-1 (read-out: IC50); in assay [1] (read-out: IC50)) were 11 nM and 47 nM, respectively. Also, the Ratio IC50 in the assay listed under Homo sapiens lay within 3 to 5.
For `N[C@@]1(C(=O)O)CN(C[C@@H]2COCCN2)C[C@@H]1CCCB(O)O` the same measures were 10 nM, 27 nM and 3 to 5.
For `N[C@@]1(C(=O)O)CN(C[C@H]2COCCN2)C[C@@H]1CCCB(O)O` the same measures were 19 nM, 65 nM and 3 to 5.
On to `Cn1ccnc1CN1C[C@H](CCCB(O)O)[C@](N)(C(=O)O)C1`, for which the IC50 at Arginase-1 (read-out: IC50) was 100 nM; in assay [1] (read-out: IC50), 330 nM. Further, in the assay filed under Homo sapiens, the Ratio IC50 lay in the range of 3 to 5.
For `N[C@@]1(C(=O)O)CNC[C@@H]1CCCB(O)O` the same measures were 110 nM, 440 nM and 3 to 5.
Taken in the same sequence, the figures for `N[C@@]1(C(=O)O)CN(Cc2ccccc2)C[C@@H]1CCCB(O)O` were 300 nM, 1540 nM and 3 to 5.
Taken in the same sequence, the figures for `Cc1[nH]ncc1CN1C[C@H](CCCB(O)O)[C@](N)(C(=O)O)C1` were 400 nM, 2180 nM and 3 to 5.
As for `N[C@@]1(C(=O)O)CN(C[C@H]2CCCCN2)C[C@@H]1CCCB(O)O`, the 50% inhibitory concentration (IC50) is 2.6 nM at Arginase-1 (read-out: IC50) and 14 nM in assay [1] (read-out: IC50). In the assay listed under Homo sapiens, the Ratio IC50 was 3 to 5.
For `Cc1nn(C)c(C)c1CN1C[C@H](CCCB(O)O)[C@](N)(C(=O)O)C1` the same measures were 340 nM, 2230 nM and 3 to 5.
In the case of `N[C@@]1(C(=O)O)CN(C[C@@H]2CCCCN2)C[C@@H]1CCCB(O)O`, the IC50 was 30 nM on Arginase-1 (read-out: IC50) and 95 nM in assay [1] (read-out: IC50). Moreover, the Ratio IC50 in the assay listed under Homo sapiens was 3 to 5.
Taken in the same sequence, the figures for `C[C@H](N)CN1C[C@H](CCCB(O)O)[C@](N)(C(=O)O)C1` were 7.7 nM, 16 nM and 2 to 5.
Taken in the same sequence, the figures for `N[C@@]1(C(=O)O)CN(C[C@H]2CCCN2)C[C@@H]1CCCB(O)O` were 10 nM, 37 nM and 3 to 5.
Taken in the same sequence, the figures for `N[C@@]1(C(=O)O)CN(Cc2cccnc2)C[C@@H]1CCCB(O)O` were 470 nM, 1370 nM and 3 to 5.
Regarding `C[C@@H](N)CN1C[C@H](CCCB(O)O)[C@](N)(C(=O)O)C1`, the IC50 on Arginase-1 (read-out: IC50) came out at 16 nM; in assay [1] (read-out: IC50), 37 nM. For the same molecule, the Ratio IC50 in the assay filed under Homo sapiens lay within 3 to 5.
Taken in the same sequence, the figures for `N[C@@]1(C(=O)O)CN(Cc2cncs2)C[C@@H]1CCCB(O)O` were 360 nM, 850 nM and 3 to 5.
For the molecule `N[C@@H](Cc1ccccc1)CN1C[C@H](CCCB(O)O)[C@](N)(C(=O)O)C1`, the IC50 at Arginase-1 (read-out: IC50) worked out at 1.3 nM; in assay [1] (read-out: IC50) it was 8.1 nM. The Ratio IC50 was 1190 in assay [2] and 3 to 5 in the assay filed under Homo sapiens.
For `NC1(C(=O)O)CCCC1CCCB(O)O` (racemic; 8) [listing 1 of 2 here], the IC50 on Arginase-1 (read-out: IC50) turned out to be 380 nM; in assay [1] (read-out: IC50), 1280 nM.
Consider `N[C@@]1(C(=O)O)CN(Cc2cccc(F)n2)C[C@@H]1CCCB(O)O`, for which the IC50 at Arginase-1 (read-out: IC50) is 670 nM; in assay [1] (read-out: IC50), 2160 nM. The Ratio IC50 in the assay listed under Homo sapiens lay within 3 to 5.
Turning to `NC1(C(=O)O)CCCC1CCCB(O)O` (racemic; 8) [listing 2 of 2 here], in the assay filed under Homo sapiens, the Ratio IC50 lay within 3 to 5.
For the molecule `N[C@]1(C(=O)O)CCC[C@H]1CCCB(O)O`, the concentration for half-maximal inhibition (IC50) entry (on Arginase-1; in assay [1]) was “Not Active” each time.
With `N[C@@H](CCCCB(O)O)C(=O)O`, the IC50 at Arginase-1 (read-out: IC50) came out at 1550 nM; in assay [1] (read-out: IC50), 2550 nM. Besides, the Ratio IC50 in the assay listed under Homo sapiens fell in the range of 3 to 5.
For `N[C@@]1(C(=O)O)CN(Cc2ccncc2)C[C@@H]1CCCB(O)O` the same measures were 600 nM, 1860 nM and 3 to 5.
On to `N[C@@]1(C(=O)O)CN(Cc2ccccn2)C[C@@H]1CCCB(O)O`, for which the IC50 at Arginase-1 (read-out: IC50) came out at 380 nM; in assay [1] (read-out: IC50), 1270 nM. Besides, in the assay listed under Homo sapiens, the Ratio IC50 is 3 to 5.
In the case of `N=C(NO)NCC[C@H](N)C(=O)O` [NOR-NOHA], the IC50 in assay [1] (read-out: IC50) was 1260 nM.
As for `N[C@H](Cc1ccccc1)CN1C[C@H](CCCB(O)O)[C@](N)(C(=O)O)C1`, the half-inhibitory concentration (IC50) on Arginase-1 (read-out: IC50) is 10 nM; in assay [1] (read-out: IC50), 27 nM. The Ratio IC50 in the assay listed under Homo sapiens lay in the range of 3 to 5.
Take `NC1(C(=O)O)CCCC1CCCB(O)O` (racemic; 9): the IC50 worked out at 48000 nM at Arginase-1 (read-out: IC50) and 79200 nM in assay [1] (read-out: IC50).
On to `N[C@@]1(C(=O)O)CCC[C@@H]1CCCB(O)O`, for which the results for the IC50 (at Arginase-1 (read-out: IC50); in assay [1] (read-out: IC50)) were 210 nM and 630 nM, respectively. The Ratio IC50 in the assay filed under Homo sapiens lay within 3 to 5.

As usually defined, the IC50 is the concentration that inhibits the measured activity by half.
